# Patent US20070224194A1, “Methods for Inhibiting Angiogenesis and/or Lymphangiogenesis” (LUDWIG INSTITUTE FOR CANCER RESEARCH, priority 2004, published 2007)
# The star is where a group is joined. Decanoyl = CCCCCCCCCC(=O)*; CH2Cl = ClC*
# What was measured:
# [1] = system: BaF3 cells expressing the VEGFR-2/EpoR chimeric receptor; experiment: BaF3 bioassay, VEGFR-2/EpoR chimeric receptor, [3H]thymidine incorporation; assay type: cell-based; conditions: paper example in present tense
# Text: In order to test if a furin or broad-range PC inhibitor can block the biological effects of VEGF-D, mammalian cells are employed that proteolytically process VEGF-D, such as 293EBNA or Capan-1 pancreatic carcinoma cells. Derivatives of these cells harboring an expression construct for full-length VEGF-D are transfected with the shRNA construct for furin (as described here) or treated with a broad-range PC inhibitor such as decanoyl-Arg-Val-Lys-Arg-chloromethylketone (see, PCT WO 2005/112971 A1, the disclosure of which is incorporated herein by reference in its entirety). The inhibition of VEGF-D processing by these agents is confirmed by immunoprecipitation/Western blotting of the conditioned cell culture media using antibody that binds the VHD of VEGF-D. The conditioned cell culture media from cells treated with the inhibitors (and from cells in which these agents are omitted, i.e. “mock” treatments) are used for incubations with BaF3 pre-B cells expressing chimeric receptors consisting of the extracellular domains of VEGFR-2 or VEGFR-3 and the transmembrane and cytoplasmic domains of the erythropoietin receptor (EpoR) (Stacker et al., J. Biol. Chem., 274:34884-34892, 1999; Achen et al., Eur. J. Biochem., 267:2505-2515, 2000). […] The proliferation of the cells in response to the conditioned media containing VEGF-D is monitored by incorporation of [3H]thymidine into DNA. […]
# Furin = Furin (Homo sapiens, UniProt P09958); conditions: cited from earlier work
# Sequence of Furin (P09958 108-794, species assumed): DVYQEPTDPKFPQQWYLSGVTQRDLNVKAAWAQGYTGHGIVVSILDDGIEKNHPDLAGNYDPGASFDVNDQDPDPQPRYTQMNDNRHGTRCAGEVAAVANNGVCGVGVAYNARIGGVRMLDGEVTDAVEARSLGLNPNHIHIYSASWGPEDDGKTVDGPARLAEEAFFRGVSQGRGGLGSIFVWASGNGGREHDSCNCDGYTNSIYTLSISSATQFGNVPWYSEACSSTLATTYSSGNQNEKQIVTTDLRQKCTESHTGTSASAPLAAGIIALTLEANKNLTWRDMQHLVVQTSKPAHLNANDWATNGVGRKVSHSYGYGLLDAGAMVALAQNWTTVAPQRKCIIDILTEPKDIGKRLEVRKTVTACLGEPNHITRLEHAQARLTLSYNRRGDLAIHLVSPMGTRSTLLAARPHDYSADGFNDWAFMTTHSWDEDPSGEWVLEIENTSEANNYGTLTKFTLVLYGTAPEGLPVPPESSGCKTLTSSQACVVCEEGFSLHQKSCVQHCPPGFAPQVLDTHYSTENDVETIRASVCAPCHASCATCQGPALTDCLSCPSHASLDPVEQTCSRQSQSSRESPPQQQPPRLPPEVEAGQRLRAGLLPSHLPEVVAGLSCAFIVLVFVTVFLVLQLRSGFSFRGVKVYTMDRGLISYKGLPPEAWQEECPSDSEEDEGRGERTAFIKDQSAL
# [2] = system: proteolytic processing of VEGF-C; experiment: Processing of VEGF-C secreted by 293EBNA cells expressing VEGF-C-FULL-N-Myc (immunoprecipitation/Western blot); assay type: cell-based, human; conditions: 0, 1, 10, 50 or 100 μM, 18 hours, Western blot
# Method: 293EBNA cells stably transfected with an expression construct encoding VEGF-C-FULL-N-Myc (full-length VEGF-C tagged with Myc at the N-terminus) or VEGF-D-FULL-N-FLAG (full-length VEGF-D tagged with FLAG at the N-terminus) secrete fully and partially processed forms of VEGF-C or VEGF-D into the culture medium (Joukov et al., EMBO J. 16:3898-3911 1997; Stacker et al., J. Biol. Chem. 274: 32127-32136, 1999). These cells were grown overnight in 24-well plates, seeded with 8×10^4 cells per well. At the time when cultures were initiated in these plates, growth medium was supplemented with Dec-RVKR-CMK (Calbiochem) (dissolved in methanol) to a final concentration of 0, 1, 10, 50 or 100 μM. Solvent control cultures were also established, in which the medium was supplemented with methanol at concentrations equal to those present in the cultures treated with inhibitor. […]
# VEGF-C species were immunoprecipitated from conditioned medium by addition of anti-VEGF-C antibody that binds the VHD and C-terminal propeptide (R&D Systems). […] The precipitated VEGF-C and VEGF-D species were then analysed by Western blot using biotinylated antibodies against the VHD and C terminus of VEGF-C, or the VHD of VEGF-D (R&D Systems) and streptavidin-horse radish peroxidase conjugate (Zymed) (FIGS. 1 and 2). […]
substance,measurement,setting,value
Decanoyl-Arg-Val-Lys-Arg-chloromethylketone (Decanoyl-RVKR-CH2Cl) [Dec-RVKR-CMK],proliferation of BaF3 VEGFR-2/EpoR cells induced by conditioned media of treated VEGF-D-expressing cells,[1],do not induce significant proliferation
same,inhibition of furin,Furin,potently inhibited
same,abundance of fully and partially processed forms of VEGF-C,[2],dramatically reduced in abundance in a dose-dependent manner
